Assay results published in patent US20120220581A1, “IMIDAZO[1,2-b]PYRIDAZINE DERIVATIVES AND THEIR USE AS PDE10 INHIBITORS” (Janssen-Cilag, S.A., priority 2009, published 2012).
Where a name gives a salt, the structure may show the parent alone. Read-outs that look alike come from different tables or passages of the source.

Experiments:
[1] = molecular target: other members of the PDE family (Homo sapiens, UniProt O00408); assay: In vitro PDE selectivity assay (SPA), other members of the PDE family (protocols in Table A); type: biochemical; conditions: hPDE2A; read-out: PDE 2A (expressed as pIC50) (converted)
Procedure: Rat recombinant PDE10A (rPDE10A2) was expressed in Sf9 cells using a recombinant rPDE10A baculovirus construct. Cells were harvested after 48 h of infection and the rPDE10A protein was purified by metal chelate chromatography on Ni-sepharose 6FF. Tested compounds were dissolved and diluted in 100% DMSO to a concentration 100 fold of the final concentration in the assay. Compound dilutions (0.4 μl) were added in 384 well plates to 20 μl of incubation buffer (50 mM Tris pH 7.8, 8.3 mM MgCl2, 1.7 mM EGTA). 10 μl of rPDE10A enzyme in incubation buffer was added and the reaction was started by addition of 10 μl substrate to a final concentration of 60 nM cAMP and 0.008 μCi ^3H-cAMP. The reaction was incubated for 60 minutes at room temperature. After incubation, the reaction was stopped with 20 μl of stop solution consisting of 17.8 mg/ml PDE SPA (scintillation proximity assay) beads. After sedimentation of the beads during 30 minutes the radioactivity was measured in a Perkin Elmer Topcount scintillation counter and results were expressed as cpm. For blanc values the enzyme was omitted from the reaction and replaced by incubation buffer. Control values were obtained by addition of a final concentration of 1% DMSO instead of compound. The same assay principle is applied for the measurement of the affinity of the compound for other members of the PDE family with appropriate modifications in incubation buffer, substrate concentration, incubation time and stop solution. An overview of the different protocols is presented in table A. A best fit curve is fitted by a minimum sum of squares method to the plot of % of control value substracted with blanc value versus compound concentration and the half maximal inhibitory concentration (IC50) value is derived from this curve.
The compounds of the invention are generally selective for PDE10 compared to other PDEs and there are a few that also have affinity for PDE1B1, 4D3 and 5A3.

[2] = molecular target: T1, Rat recombinant PDE10A (rPDE10A2) (Rattus norvegicus, UniProt Q9QYJ6); assay: In vitro assay PDE10A (SPA, 3H-cAMP); type: biochemical
T1 construct: inferred from the Ni metal chelate purification; made in house; host or cells: Sf9 insect cells (baculovirus)
T1 sequence (Q9QYJ6 1-794): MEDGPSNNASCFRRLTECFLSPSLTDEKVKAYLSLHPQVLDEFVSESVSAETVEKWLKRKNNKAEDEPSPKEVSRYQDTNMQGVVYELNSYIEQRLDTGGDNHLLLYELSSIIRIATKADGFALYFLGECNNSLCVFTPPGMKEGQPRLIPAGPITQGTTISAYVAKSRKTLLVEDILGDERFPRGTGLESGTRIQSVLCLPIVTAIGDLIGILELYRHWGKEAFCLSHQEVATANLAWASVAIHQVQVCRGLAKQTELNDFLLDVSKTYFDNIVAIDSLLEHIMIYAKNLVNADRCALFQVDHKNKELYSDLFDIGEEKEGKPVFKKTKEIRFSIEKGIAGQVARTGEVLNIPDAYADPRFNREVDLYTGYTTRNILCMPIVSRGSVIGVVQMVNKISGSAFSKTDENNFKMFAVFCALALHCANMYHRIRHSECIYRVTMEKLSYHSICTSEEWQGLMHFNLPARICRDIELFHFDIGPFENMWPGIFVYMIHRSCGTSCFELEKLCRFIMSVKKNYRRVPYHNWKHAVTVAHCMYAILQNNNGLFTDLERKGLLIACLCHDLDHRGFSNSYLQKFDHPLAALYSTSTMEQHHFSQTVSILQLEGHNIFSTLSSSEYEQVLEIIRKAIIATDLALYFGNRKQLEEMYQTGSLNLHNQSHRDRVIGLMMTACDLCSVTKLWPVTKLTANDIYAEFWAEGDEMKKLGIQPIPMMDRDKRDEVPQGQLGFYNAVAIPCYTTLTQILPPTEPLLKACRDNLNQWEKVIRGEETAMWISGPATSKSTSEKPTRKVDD
Summary of the method: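 Scintillation proximity read-out (cpm) of 3H-cAMP hydrolysis after 60 min at room temperature, with enzyme-free blanks and 1% DMSO controls. Enzyme was Sf9-expressed, Ni-sepharose-purified rat rPDE10A2; substrate 60 nM cAMP with tracer, buffer Tris pH 7.8 containing MgCl2 and EGTA.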

[3] = tested on: apomorphine-induced stereotypy in rats; assay: Apomorphine-induced stereotypy in rats (APO); type: in vivo; conditions: Rattus norvegicus
Procedure: Apomorphine (1.0 mg/kg, i.v.)-induced stereotypy (compulsive sniffing, licking, chewing) was scored every 5 min over the first hour after injection of apomorphine, following a 1 hour interval pre-treatment with the test compound. The score system was: (3) pronounced, (2) moderate, (1) slight, and (0) absent.

[4] = molecular target: T2, PDE10 (Rattus norvegicus, UniProt Q9QYJ6); assay: PDE10 occupancy ([3H]-MP-10, striatum); type: in vivo; conditions: for ED50 / receptor occupancy at 10 mg/kg: rat; for receptor occupancy at 10 mg/kg: single dose 10 mg/kg
T2 construct: from tissue; host or cells: rat brain sections, striatum (in vivo dosing, ex vivo autoradiography)
T2 sequence (Q9QYJ6 1-794): T1 sequence (Q9QYJ6 1-794)
Procedure: Dose-response or single dose experiments were performed to measure PDE10 occupancy 1 hour after subcutaneous (s.c.) or oral (p.o.) administration. Male Wistar rats (200 g) were treated by s.c. or p.o. administration of various PDE10 inhibitors. The PDE10 radioligand [^3H]-MP-10 (10 μCi/animal) was injected intravenously (i.v.) 30 minutes before sacrifice. Brains were immediately removed from the skull and rapidly frozen. Twenty μm-thick brain sections were cut using a cryostat-microtome, thaw-mounted on microscope slides and loaded in a β-imager to quantify PDE10 occupancy in the striatum.

[5] = Table 4 in vitro selectivity, read-out: PDE 10A2 (expressed as pIC50) (converted)
[6] = pIC50 corresponds to the −log IC50 expressed in mol/L, read-out: PDE10A2 pIC50 (converted)
[7] = dose at which 50% of the tested animals show the effect, ≧: active in 30% of the animals at the indicated dose, ≦: active in 60%
[8] = po, n.d.: found not active at threshold dose 2.5 mg/kg or 10 mg/kg (a), * not soluble, tested orally as a suspension
[9] = oral, read-out: SD po % occupancy at 10 mg/kg
[10] = n.d.: found not active at threshold dose 2.5 mg/kg or 10 mg/kg (a), not further tested
[11] = sc, subcutaneous, read-out: SD sc % occupancy at 10 mg/kg

Sequence of other members of the PDE family (O00408 whole entry): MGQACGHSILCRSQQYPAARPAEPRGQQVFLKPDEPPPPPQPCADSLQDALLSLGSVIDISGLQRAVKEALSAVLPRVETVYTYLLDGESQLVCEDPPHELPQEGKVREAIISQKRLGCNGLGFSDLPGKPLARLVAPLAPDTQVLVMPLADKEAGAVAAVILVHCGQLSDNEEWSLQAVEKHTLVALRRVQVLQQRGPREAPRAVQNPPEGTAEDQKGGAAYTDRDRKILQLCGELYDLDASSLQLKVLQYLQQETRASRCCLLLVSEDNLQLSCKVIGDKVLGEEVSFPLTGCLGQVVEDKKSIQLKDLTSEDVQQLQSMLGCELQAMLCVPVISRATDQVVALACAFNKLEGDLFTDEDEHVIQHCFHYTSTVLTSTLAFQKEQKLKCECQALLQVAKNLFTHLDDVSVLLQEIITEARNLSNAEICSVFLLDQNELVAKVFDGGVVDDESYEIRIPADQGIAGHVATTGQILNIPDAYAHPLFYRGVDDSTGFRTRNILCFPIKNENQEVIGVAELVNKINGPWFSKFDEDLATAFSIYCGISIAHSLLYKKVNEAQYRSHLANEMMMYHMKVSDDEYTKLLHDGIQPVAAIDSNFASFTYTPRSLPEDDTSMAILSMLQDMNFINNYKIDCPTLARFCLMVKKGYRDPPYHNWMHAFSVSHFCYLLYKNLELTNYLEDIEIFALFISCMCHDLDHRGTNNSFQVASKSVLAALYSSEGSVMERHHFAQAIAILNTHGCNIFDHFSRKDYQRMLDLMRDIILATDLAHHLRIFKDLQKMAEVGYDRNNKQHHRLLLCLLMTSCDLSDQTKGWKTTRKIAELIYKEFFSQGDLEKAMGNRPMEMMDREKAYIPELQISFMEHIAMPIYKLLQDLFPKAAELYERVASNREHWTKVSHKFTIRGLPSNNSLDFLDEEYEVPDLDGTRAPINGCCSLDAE

| IC50 [2, 6] | receptor occupancy at 10 mg/kg [4, 9] | receptor occupancy at 10 mg/kg [4, 11] | Compound | ED50 [3, 10] | also measured |
| --- | --- | --- | --- | --- | --- |
| 25.7 nM |  |  | COC(C)(C)Cc1ccc(-c2c(C)nc3c(-c4ccncc4)ccnn23)cn1 [compound 7, 3-[6-(2-methoxy-2-methylpropyl)-3-pyridinyl-2-methyl-8-(4-pyridinyl)-imidazol-1,2-b]pyridazine] |  | IC50 [1]: > 10000 nM; IC50 [2, 5]: 25.7 nM; ED50 [3, 7]: 0.3 mg/kg; ED50 ([4]; sc, dose response, subcutaneous administration, read-out: PDE10 in vivo occupancy ED50 sc): 1.6 mg/kg |
| 115 nM |  |  | COC(C)(C)Cc1ccc(-c2c(C)nc3c(-c4ccncc4)cc(C)nn23)cn1 [compound 48, 3-[6-(2-methoxy-2-methylpropyl)-3-pyridinyl]-2,6-dimethyl-8-(4-pyridinyl)-imidazo[1,2-b]pyridazine] |  | IC50 [1]: > 10000 nM; IC50 [2, 5]: 115 nM; ED50 [3, 7]: ≥ 2.5 mg/kg; ED50 ([4]; dose response, oral administration, read-out: PDE10 in vivo occupancy ED50 po): 4.3 mg/kg |
| 257 nM | 38% |  | Cc1nc2c(N3CCOCC3)ccnn2c1-c1ccc(OCC(F)(F)F)nc1 [compound 62, 2-methyl-8-(4-morpholinyl)-3-[6-(2,2,2-trifluoroethoxy)-3-pyridinyl]-imidazo[1,2-b]pyridazine] |  | ED50 [3, 8]: > 2.5 mg/kg |
| 162 nM |  | 17% | Cc1nc2c(N3CCOCC3)ccnn2c1-c1ccc(OCC2CC2)nc1 [compound 65, 3-[6-(cyclopropylmethoxy)-3-pyridinyl]-2-methyl-8-(4-morpholinyl)-imidazo[1,2-b]pyridazine] | > 10 mg/kg |  |
| 178 nM |  | 29% | Cc1nc2c(N3CCOCC3)ccnn2c1-c1ccc(OC(C)C)nc1 [compound 66, 2-methyl-3-[6-(1-methylethoxy)-3-pyridinyl]-8-(4-morpholinyl)-imidazo[1,2-b]pyridazine] | > 10 mg/kg |  |
| 87.1 nM |  | 1% | Cc1nc2c(N3CCOCC3)ccnn2c1-c1ccnc(OC(C)C)c1 [compound 67, 2-methyl-3-[2-(1-methylethoxy)-4-pyridinyl]-8-(4-morpholinyl)-imidazo[1,2-b]pyridazine] | > 10 mg/kg |  |
| 52.5 nM |  | 72% | COCCn1cc(-c2c(C)nc3c(-c4ccncc4)ccnn23)cn1 [compound 114, 3-[1-(2-methoxyethyl)-1H-pyrazol-4-yl]-2-methyl-8-(4-pyridinyl)-imidazo[1,2-b]pyridazine] | > 2.5 mg/kg |  |
| 234 nM |  | 0% | COCCn1cc(-c2c(C(C)C)nc3c(-c4ccncc4)ccnn23)cn1 [compound 121, 3-[1-(2-methoxyethyl)-1H-pyrazol-4-yl]-2-(1-methylethyl)-8-(4-pyridinyl)-imidazo[1,2-b]pyridazine] | > 10 mg/kg |  |
| 50.1 nM |  | 40% | Cc1nc2c(N3CCOCC3)ccnn2c1-c1cnn(CC(F)(F)C2CC2)c1 [compound 128, 3-[1-(2-cyclopropyl-2,2-difluoroethyl)-1H-pyrazol-4-yl]-2-methyl-8-(4-morpholinyl)-imidazo[1,2-b]pyridazine] | > 10 mg/kg |  |
| 219 nM | 6% |  | COCCn1cc(-c2c(C)nc3c(N4CCOCC4)cc(C(F)(F)F)nn23)cn1 [compound 130, 3-[1-(2-methoxyethyl)-1H-pyrazol-4-yl]-2-methyl-8-(4-morpholinyl)-6-(trifluoromethyl)-imidazo[1,2-b]pyridazine] |  | ED50 [3, 8]: > 10 mg/kg |
| 70.8 nM |  | 44% | CCc1nc2c(-c3ccncc3)ccnn2c1-c1cnn(CCOC)c1 [compound 132, 2-ethyl-3-[1-(2-methoxyethyl)-1H-pyrazol-4-yl]-8-(4-pyridinyl)-imidazo[1,2-b]pyridazine] | > 10 mg/kg |  |
| 25.7 nM | 12% |  | Cc1nc2c(N3CCOCC3)ccnn2c1-c1cnn(CC(F)(F)F)c1 [compound 137, 2-methyl-8-(4-morpholinyl)-3-[1-(2,2,2-trifluoroethyl)-1H-pyrazol-4-yl]-imidazo[1,2-b]pyridazine] | > 2.5 mg/kg |  |
| 39.8 nM | 11% |  | FC(F)(F)Cn1cc(-c2c(C3CC3)nc3c(N4CCOCC4)ccnn23)cn1 [compound 138, 2-cyclopropyl-8-(4-morpholinyl)-3-[1-(2,2,2-trifluoroethyl)-1H-pyrazol-4-yl]-imidazo[1,2-b]pyridazine] |  | ED50 [3, 8]: > 10 mg/kg |
| 174 nM | 0% |  | COCCn1cc(-c2c(OC)nc3c(N4CCOCC4)ccnn23)cn1 [compound 140, 2-methoxy-3-[1-(2-methoxyethyl)-1H-pyrazol-4-yl]-8-(4-morpholinyl)-imidazo[1,2-b]pyridazine] | > 10 mg/kg |  |

| Compound | IC50 [2, 6] | receptor occupancy at 10 mg/kg [4, 9] | receptor occupancy at 10 mg/kg [4, 11] | ED50 [3, 10] | also measured |
| --- | --- | --- | --- | --- | --- |
| COCCOc1ccc(-c2c(C)nc3c(-c4ccncc4)ccnn23)cn1 [compound 21a, 3-[6-(2-methoxyethoxy)-3-pyridinyl]-2-methyl-8-(4-pyridinyl)-imidazo[1,2-b]pyridazine hydrochloride salt] | 151 nM |  |  |  | PDE10 in vivo occupancy ED50 po ([4]; dose response, oral administration): 14 mg/kg; PDE10 in vivo occupancy ED50 sc ([4]; dose response, subcutaneous administration): 2.6 mg/kg |
